Our source for the EC50, AC50 and IC50 values is ChEMBL document CHEMBL1201862, “PubChem BioAssay data set” (2004).

Activity calls are given as the source filed them.

Experiment [1] deals with T1, Short transient receptor potential channel 4 (Mus musculus, UniProt Q9QUQ5).
T1 sequence (Q9QUQ5 whole entry): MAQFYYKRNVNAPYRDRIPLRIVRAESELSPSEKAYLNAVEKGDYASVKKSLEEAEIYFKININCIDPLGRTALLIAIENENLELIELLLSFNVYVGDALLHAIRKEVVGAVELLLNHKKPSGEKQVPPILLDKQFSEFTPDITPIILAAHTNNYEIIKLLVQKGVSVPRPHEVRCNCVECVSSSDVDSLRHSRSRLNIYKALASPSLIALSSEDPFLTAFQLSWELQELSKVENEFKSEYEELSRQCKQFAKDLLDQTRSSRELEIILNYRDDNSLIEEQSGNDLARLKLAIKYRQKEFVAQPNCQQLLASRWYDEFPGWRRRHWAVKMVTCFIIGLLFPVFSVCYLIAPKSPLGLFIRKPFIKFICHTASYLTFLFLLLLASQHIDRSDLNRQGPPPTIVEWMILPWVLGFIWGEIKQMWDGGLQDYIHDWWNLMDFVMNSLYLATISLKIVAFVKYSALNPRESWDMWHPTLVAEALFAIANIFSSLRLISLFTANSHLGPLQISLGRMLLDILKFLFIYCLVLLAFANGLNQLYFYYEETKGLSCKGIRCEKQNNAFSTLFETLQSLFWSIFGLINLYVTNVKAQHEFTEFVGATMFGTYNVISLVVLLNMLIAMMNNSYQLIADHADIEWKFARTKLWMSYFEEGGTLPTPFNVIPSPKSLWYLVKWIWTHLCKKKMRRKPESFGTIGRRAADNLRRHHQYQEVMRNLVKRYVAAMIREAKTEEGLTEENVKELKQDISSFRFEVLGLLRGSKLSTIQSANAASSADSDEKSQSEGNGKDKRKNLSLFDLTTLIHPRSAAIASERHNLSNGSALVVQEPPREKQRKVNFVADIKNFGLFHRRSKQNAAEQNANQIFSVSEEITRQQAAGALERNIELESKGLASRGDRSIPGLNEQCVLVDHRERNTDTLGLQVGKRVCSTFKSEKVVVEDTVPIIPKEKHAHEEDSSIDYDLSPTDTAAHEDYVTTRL
Put plainly: calcium entry via TRPC4 opening agents – cell-based, HEK293 TRPC4/mu-opioid, Fluo-4 calcium, dose response (AID 434937). Format: functional.

The nature of experiment [2]: off-target signal loss in HeLa-CEM21 co-culture – HeLa F-luc CTL cells, cherry-picked, counter-screen for HIV-1 Env fusion inhibitor project, dose response (AID 652040).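 Note: potency for signal decrease marking cytotoxic or nonspecific inhibition.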 The format is functional, cell-based.
Experiment [3] in a line: blockers of HIV-1 envelope-mediated cell-cell fusion – cherry-pick, dose response (AID 652057). Format: functional, cell-based.
A short description of experiment [4]: HIV-1 AD8 envelope cell-cell fusion blockers – cherry-pick, dose response (AID 652062).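 Note: luciferase signal from cell-cell fusion driven by HIV-1 clade B AD8 Env; potency is for inhibitors of fusion seen as a drop in luminescence.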 The format is functional, cell-based.
The subject of experiment [5] is BJ. Put plainly: BJ-TERT-LT-ST fibroblast viability loss – cell-based, RAS-independent, luminescence, dose response (AID 1935).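 Note: BJ fibroblasts immortalized with TERT plus LT and ST oncogenes.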 The format is functional. The conditions noted are these: Homo sapiens.
A short description of experiment [6]: viability loss in CEM21 cells – cell-based, CellTiter-Glo luminescence, cherry-picked, cytotoxicity control for viral fusion inhibitor project, dose response (AID 652042).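 Note: potency for signal decrease meaning cytotoxicity.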 The format is functional. (In general: Cellular ATP, detected with luciferase, serves as a proxy for viable cell number.)
Experiment [7] deals with BJ. As to the kind of experiment: cells. The conditions noted are these: Homo sapiens. Format: functional, cell-based.
The nature of experiment [8]: general cell-killing toxicity readout – plate reader, dry powder samples, cytotoxicity control for PAX8 inhibitor project, dose response (AID 743021). The format is functional, cell-based.
Experiment [9] can be described thus: HEK-293T viability loss after treatment – luminescence, T-cell screen hits, cytotoxicity control for TCR NF-kB inhibitor project, dose response (AID 489026).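 Note: cells exposed to compound about 14 hours before the viability readout.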 The format is functional, cell-based.
Experiment [10] addresses Paired box protein Pax-8 (Homo sapiens, UniProt Q06710). Put plainly: PAX8 transcriptional activity inhibition in RMG-I – RMG-I cells, luciferase, cherry-pick, dose response (AID 687027).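 Note: luciferase reporter driven by Pax8 target thyroperoxidase promoter measured by SteadyGlo luminescence.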 Format: functional, cell-based.
Experiment [11] has as its system BJ. As to the kind of experiment: BJ-TERT fibroblast viability loss – cell-based, RAS-independent, luminescence, dose response (AID 1933). The conditions noted are these: Homo sapiens. Format: functional.
The nature of experiment [12]: blockers of HIV-1 ZM109 envelope-driven cell-cell fusion – HeLa effector, CEM target cells, luciferase, cherry-pick, dose response (AID 652058).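 Note: luciferase signal from HIV-1 Env mediated cell-cell fusion of effector and target cells.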 Format: functional, cell-based.
In experiment [13] the target is Luciferin 4-monooxygenase (Photinus pyralis, UniProt P08659). As to the kind of experiment: inhibition of purified Photinus pyralis luciferase – biochemical, luminescence, dose response (AID 1891).
Chain of Luciferin 4-monooxygenase (P08659 whole entry): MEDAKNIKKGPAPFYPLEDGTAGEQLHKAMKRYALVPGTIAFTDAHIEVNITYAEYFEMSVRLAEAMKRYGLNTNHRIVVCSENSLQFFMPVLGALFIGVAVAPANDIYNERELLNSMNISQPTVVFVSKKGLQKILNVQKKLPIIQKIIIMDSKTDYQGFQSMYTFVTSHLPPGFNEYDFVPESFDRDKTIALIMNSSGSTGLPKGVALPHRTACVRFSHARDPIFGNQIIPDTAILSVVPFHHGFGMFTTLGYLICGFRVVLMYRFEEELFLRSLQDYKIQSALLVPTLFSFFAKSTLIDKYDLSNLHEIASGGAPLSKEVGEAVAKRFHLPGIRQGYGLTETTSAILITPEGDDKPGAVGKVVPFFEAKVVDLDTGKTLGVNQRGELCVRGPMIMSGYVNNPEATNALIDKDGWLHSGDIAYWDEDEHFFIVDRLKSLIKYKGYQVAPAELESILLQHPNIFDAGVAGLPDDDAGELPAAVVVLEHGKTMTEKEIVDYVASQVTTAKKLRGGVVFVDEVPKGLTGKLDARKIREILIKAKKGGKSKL
Experiment [14] can be described thus: DRD fibroblast viability loss – cell-based, non-viral oncogenic, luminescence, dose response (AID 1934). The conditions noted are these: Homo sapiens. Format: functional.
The nature of experiment [15]: Luminescence Cell-Based Dose Confirmation HTS to Identify Inhibitors of Platelet Dense Granule Release. [Related pubchem assays: 1663 (Primary HTS), 1678 (Summary of Project)]. Format: functional.
Experiment [16] has as its target Beta-galactosidase (Escherichia coli, UniProt Q8VNN2). As to the kind of experiment: Dose response counterscreen for EBI2 assay utilizing the enzyme, b-galactosidase. The format is functional. On the technique in general: The purpose of a counterscreen is to sort out artefacts and off-target activity.

Chain of Paired box protein Pax-8 (Q06710 whole entry): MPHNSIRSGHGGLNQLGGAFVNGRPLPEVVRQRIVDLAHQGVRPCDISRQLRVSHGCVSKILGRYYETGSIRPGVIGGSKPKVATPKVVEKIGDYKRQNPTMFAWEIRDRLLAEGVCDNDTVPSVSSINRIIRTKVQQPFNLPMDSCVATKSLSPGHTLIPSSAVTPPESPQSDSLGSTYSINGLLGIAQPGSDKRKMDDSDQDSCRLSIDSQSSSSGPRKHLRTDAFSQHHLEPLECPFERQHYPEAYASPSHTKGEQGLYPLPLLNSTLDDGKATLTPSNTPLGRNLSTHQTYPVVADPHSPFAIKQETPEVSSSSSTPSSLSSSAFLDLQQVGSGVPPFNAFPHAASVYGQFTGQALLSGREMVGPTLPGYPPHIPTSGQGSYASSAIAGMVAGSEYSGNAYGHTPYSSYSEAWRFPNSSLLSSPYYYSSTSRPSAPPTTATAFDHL
Chain of Beta-galactosidase (Q8VNN2 whole entry): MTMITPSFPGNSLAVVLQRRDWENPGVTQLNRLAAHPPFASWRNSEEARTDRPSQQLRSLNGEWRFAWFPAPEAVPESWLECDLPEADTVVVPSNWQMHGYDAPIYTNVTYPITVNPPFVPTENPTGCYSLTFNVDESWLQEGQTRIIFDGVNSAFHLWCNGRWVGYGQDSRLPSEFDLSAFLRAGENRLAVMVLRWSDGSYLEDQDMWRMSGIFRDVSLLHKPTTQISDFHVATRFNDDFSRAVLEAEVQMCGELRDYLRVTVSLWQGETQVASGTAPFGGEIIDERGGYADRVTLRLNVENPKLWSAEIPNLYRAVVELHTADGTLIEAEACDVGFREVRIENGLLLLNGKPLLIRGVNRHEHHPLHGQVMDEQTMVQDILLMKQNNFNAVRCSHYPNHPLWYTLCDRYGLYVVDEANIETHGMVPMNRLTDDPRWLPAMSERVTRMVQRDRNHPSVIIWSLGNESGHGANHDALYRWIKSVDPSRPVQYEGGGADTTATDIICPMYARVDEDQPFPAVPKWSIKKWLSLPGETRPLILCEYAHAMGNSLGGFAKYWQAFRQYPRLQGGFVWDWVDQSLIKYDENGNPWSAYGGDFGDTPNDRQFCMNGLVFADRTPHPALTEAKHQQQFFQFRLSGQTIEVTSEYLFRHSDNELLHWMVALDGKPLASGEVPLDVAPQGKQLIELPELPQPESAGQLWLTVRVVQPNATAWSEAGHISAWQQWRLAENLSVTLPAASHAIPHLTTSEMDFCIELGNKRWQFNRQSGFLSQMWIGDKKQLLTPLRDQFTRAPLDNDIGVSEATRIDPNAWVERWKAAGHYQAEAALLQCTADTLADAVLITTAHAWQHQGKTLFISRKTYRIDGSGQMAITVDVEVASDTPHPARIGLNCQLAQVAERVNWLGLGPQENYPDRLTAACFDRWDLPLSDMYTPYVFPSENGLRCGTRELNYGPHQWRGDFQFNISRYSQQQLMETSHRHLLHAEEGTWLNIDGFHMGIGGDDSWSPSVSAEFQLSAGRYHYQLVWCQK

For `CN(C)CCNC(=O)c1scc2c1CCCC2`, the EC50 in experiment [1] was 3.35 µM (active).

In the case of `O=C(O)c1ccc(N/N=C/c2ccc3c(c2)OCO3)cc1`, the AC50 was 4.15 µM (active) in [2]; 2.44 µM (active) in [3]; 5.24 µM (active) in experiment [4]; 36.6 µM (active) in experiment [6]; 27.7 µM (active) in [8]; 3.04 µM (active) in experiment [10]. Also, the AC50 in experiment [12] is 9.48 µM (active). Also, the EC50 in [5] was 24.2 µM (active); in experiment [7], 8.37 µM (active); in experiment [11] it was 13.1 µM (active); in [13], < 0.088 µM (active); in [14], 8.19 µM (active); in [15], < 0.088 µM (active). The IC50 in [9] is > 80 µM (inactive).

Regarding `CCOC(=O)c1ccccc1NC(=O)Cn1c(-c2nonc2N)nc2ccccc21`, in [9], the IC50 is > 80 µM (inactive).

For the molecule `CCCn1ncc(CN2CCC(n3nccc3NC(=O)CCc3ccccc3)CC2)c1C`, the EC50 in experiment [1] is 0.024 µM (active).

Turning to `COc1ccc(Nc2nc(-c3sc(C)nc3C)cs2)cc1`, the IC50 in [9] was 49.6 µM (inactive); in [16], > 80 µM (inactive).

As for `CN(CCc1ccccn1)C(=O)CC1C(=O)NCCN1Cc1ccc(-c2ccccc2)cc1` (stereo not given), the EC50 in experiment [1] is 3.76 µM (active).

What is called EC50 is the concentration needed to bring the measured effect to its halfway point. A word on the AC50: it is the midpoint of the concentration-response curve, whichever way the signal moves. The term IC50 denotes the concentration that inhibits the measured activity by half.
